What is called pIC50 is −log10 of the IC50, conventionally taken in molar units.

Molecules are shown by their SMILES. pIC50: −log10 of the molar value.

The results in this text go back to patent US9060943B2, “Compositions comprising trans-tert-butyl cyclohexanol as skin irritation-reducing agent” (SYMRISE AG, priority 2009, dated 2015).

One experiment concerns the target T1, recombinant human TRPV1 (Homo sapiens, UniProt Q8NER1).
T1 construct: expressed in transfected cells
Description: Calcium assay (Fluo-4) for TRPV1 antagonism in HEK293 cells in the presence of capsaicin. Format: cell-based. Particulars: for TRPV1 antagonism (result in words), pre-incubation mode: isomer applied 10 min before addition of capsaicin; for TRPV1 antagonism (result in words): parallel application with capsaicin as agonist. The protocol:
Three samples of cis- and/or trans-4-tert-butyl cyclohexanol were assessed: 1) 99% trans-isomer, 2) an isomeric mixture enriched in the cis-isomer (59% cis, 41% trans) and 3) 99% cis-isomer.
Calciumassay based on fluorescent dye Fluo-4-AM
Negative Control: KH-buffer (solvent)
Positive Control: lonomycin (generell calcium induction)
Positive Control Capsaicin (natural agonist of TRPV1)
One day prior to performing the assay, HEK293 cells stably overexpressing recombinant human TRPV1 were plated onto black-walled assay plates, at a density of 45,000 cells per well. Using the FLEX Station system the change of the cellular calcium concentration (calcium influx) induced by TRPV1 activation was monitored using the calcium sensitive fluorescent dye fluo-4 (494 nm/516 nm (exitation/emission)). The pharmacological TRPV1 antagonist Ruthenium Red (1 μM) was used as positive control [J. Biol. Chem. 2004, 279 (34): 35741-8]. The dye-loaded stable cells in plates were placed into the fluorescence microtiter plate reader to monitor fluorescence (excitation 488 nm, emission 520 nm) change after the addition of 50 μl assay buffer (118 mM NaCl; 4.7 mM KCl; 1.2 mM MgSO4; 1.2 mM KH2PO4; 4.2 mM NaHCO3; 1.3 mM CaCl2; 10 mM HEPES (N-(2-hydroxyethyl)-piperazine-N′-2-ethanesulfonic acid) (pH: 7.4)) supplemented with an antagonist. Calcium mobilization was quantified as the change of peak fluorescence (ΔF) over the baseline level (F). The analysis was done with the software of the microtiter plate reader (FLEX Station). Potential TRPV1 antagonists were tested at an effective range of 0.5-50 μM. The test compounds were either applied in parallel to 30 nM capsaicin or 10 min prior to the agonist. TRPV1 antagonists were tested for their antagonistic activity in the presence of 30 nM capsaicin, which is the EC80 effective capsaicin concentration leading to 80% of the maximum capsaicin dependent TRPV1 activation.
Antagonistic efficacy of the isomers of 4-tert-butyl cyclohexanol on transient receptor potential ion channel 1 in cell based fluorescent analysis.
The three samples were tested for TRPV1 antagonism at parallel application with capsaicin as agonist.
TRPV1 antagonist in vitro at incubation prior to capsaicin: cis-4-tert-butyl cyclohexanol and trans-4-tert-butyl cyclohexanol were applied to HEK293 cells 10 min before capsaicin treatment.
We therefore additionally tested the pure cis- and trans-isomers of 4-tert-butyl cyclohexanol respectively in a pre-incubation mode with application of the respective isomer 10 min before addition of capsaicin.

Experiment [1] deals with volunteers who were sensitive to capsaicin. Kind of experiment: In vivo testing: capsaicin-induced stinging on the cheek, O/W-emulsion versus placebo. Details: species or system human. The following applies: O/W-emulsion with 1 wt. % applied 60 s after 31.6 ppm capsaicin on cheek; evaluated 5 minutes later; 9 volunteers. How it is done: A study was performed with 9 volunteers who were sensitive to capsaicin. […] After 60 seconds all participants sensed a pronounced stinging effect. Then, an O/W-emulsion with 1 wt. % racemic trans-4-tert-butyl cyclohexanol (purity >99 wt. %) was applied on one cheek and the placebo O/W-emulsion on the other cheek (blinded samples).

Experiment [2] has the same test system. Kind of experiment: Clinical study: stinging and burning at the nasolabial fold, O/W-emulsion with capsaicin with or without active. Format: in vivo, human. The following applies: O/W-emulsion with 31.6 ppm capsaicin and 1 wt. % active on nasolabial fold; evaluated 3 minutes later; 20 volunteers. How it is done:
A study was performed with 20 volunteers who were sensitive to capsaicin. […] On day 1 sample c2 was assessed versus control. On day 2 sample c1 was assessed versus control. The stinging and burning effects were evaluted 3 minutes later on the same scale as in Example 1.2.

T1 sequence (Q8NER1 whole entry): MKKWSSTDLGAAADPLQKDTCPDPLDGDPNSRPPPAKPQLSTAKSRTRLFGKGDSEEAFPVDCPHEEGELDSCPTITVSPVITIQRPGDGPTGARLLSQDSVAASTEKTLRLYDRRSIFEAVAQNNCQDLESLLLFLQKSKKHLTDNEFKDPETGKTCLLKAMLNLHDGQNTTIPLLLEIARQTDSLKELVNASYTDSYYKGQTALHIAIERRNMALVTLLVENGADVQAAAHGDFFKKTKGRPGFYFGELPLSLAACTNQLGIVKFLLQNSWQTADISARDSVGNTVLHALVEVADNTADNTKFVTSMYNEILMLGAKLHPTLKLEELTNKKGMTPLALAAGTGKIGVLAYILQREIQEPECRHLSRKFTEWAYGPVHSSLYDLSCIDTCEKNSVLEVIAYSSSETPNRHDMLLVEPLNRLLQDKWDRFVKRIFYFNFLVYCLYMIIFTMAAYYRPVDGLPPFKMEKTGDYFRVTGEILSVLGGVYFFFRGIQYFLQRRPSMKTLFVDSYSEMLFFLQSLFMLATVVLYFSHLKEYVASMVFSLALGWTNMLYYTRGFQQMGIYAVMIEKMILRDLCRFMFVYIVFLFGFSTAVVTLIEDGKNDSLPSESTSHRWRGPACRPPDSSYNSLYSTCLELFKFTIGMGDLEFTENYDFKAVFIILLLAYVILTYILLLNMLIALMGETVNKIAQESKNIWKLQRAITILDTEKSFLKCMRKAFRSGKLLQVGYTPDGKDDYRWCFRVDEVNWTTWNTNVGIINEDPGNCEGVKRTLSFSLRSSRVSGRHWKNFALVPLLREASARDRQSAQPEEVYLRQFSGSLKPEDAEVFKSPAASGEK

For the molecule `CC(C)(C)[C@H]1CC[C@@H](O)CC1` [cis-4-tert-butyl cyclohexanol, reference compound], at recombinant human TRPV1, the “TRPV1 antagonism (result in words), pre-incubation mode” value is on record as “not active” and the “TRPV1 antagonism (result in words)” value is “inactive”.

As to `COc1cc(CNC(=O)CCCC/C=C/C(C)C)ccc1O` [capsaicin, reference compound], the “EC80 effective capsaicin concentration (80% of maximum capsaicin dependent TRPV1 activation)” value at recombinant human TRPV1 (agonist, HEK293 cells overexpressing human TRPV1) amounted to 0.03 µM.

For `CC(C)(C)[C@H]1CC[C@H](O)CC1` [trans-4-tert-butyl cyclohexanol], at recombinant human TRPV1, the “TRPV1 antagonism (result in words), pre-incubation mode” value is “strong activity” and the “TRPV1 antagonism (result in words)” value was “significantly more active”. On recombinant human TRPV1 (parallel application with 30 nM capsaicin as agonist, HEK293 cells overexpressing human TRPV1), the pIC50 was 4.47. The “average rating of reduction of stinging effect on scale 0 (no effect) to 4 (completely suppressed)” value in experiment [1] amounted to 3.10. The “average rating of inhibition/reduction of stinging and burning on scale 0 to 4” value in experiment [2] stood at 2.95.
